Test results published in the CheMixHub viscosity set.
± gives the uncertainty stated by the source.

Experiment: xn = mol fraction of the nth substance listed

C=CC#N + C1CCCCC1
307.4 K, 101.33 kPa
Conditions	viscosity [mPa·s]
x2 = 0.0861	0.66 ± 0.01
x2 = 0.2848	0.53 ± 0.01
x2 = 0.5332	0.419 ± 0.004
x2 = 0.544	0.396 ± 0.004
x2 = 0.7114	0.359 ± 0.003
x2 = 0.8989	0.318 ± 0.003

CCCCN(CCCC)CCCC + C1CCCCC1
viscosity [mPa·s], 101 kPa
Conditions	303.15 K	313.15 K
x1 = 0.0103	0.8168 ± 0.0056	0.7154 ± 0.0051
x1 = 0.0216	0.816 ± 0.0056	0.7139 ± 0.0051
x1 = 0.03178	0.8153 ± 0.0056	0.7132 ± 0.0051
x1 = 0.04023	0.8141 ± 0.0056	0.7121 ± 0.0051
x1 = 0.05159	0.8132 ± 0.0057	0.7111 ± 0.0051
x1 = 0.05978	0.8121 ± 0.0057	0.7102 ± 0.0051
x1 = 0.0709	0.8113 ± 0.0057	0.709 ± 0.0051
x1 = 0.0807	0.81 ± 0.0057	0.7078 ± 0.0051
x1 = 0.08607	0.8086 ± 0.0057	0.7065 ± 0.0051
x2 = 0.1133	1.125 ± 0.023	–
x2 = 0.1972	1.125 ± 0.023	–
x2 = 0.402	1.021 ± 0.021	–
x2 = 0.499	0.987 ± 0.02	–
x2 = 0.5952	0.951 ± 0.019	–
x2 = 0.7042	0.911 ± 0.018	–
x2 = 0.8018	0.875 ± 0.018	–
x2 = 0.9005	0.845 ± 0.017	–

CC(C)(C)Cl + C1CCOC1
101 kPa
Conditions	viscosity [mPa·s]
298.15 K, x2 = 0.0634	0.4743 ± 0.0055
298.15 K, x2 = 0.1288	0.4733 ± 0.0055
298.15 K, x2 = 0.2423	0.4718 ± 0.0054
298.15 K, x2 = 0.3198	0.4705 ± 0.0054
298.15 K, x2 = 0.4555	0.4684 ± 0.0053
298.15 K, x2 = 0.5341	0.4673 ± 0.0053
298.15 K, x2 = 0.6598	0.4656 ± 0.0052
298.15 K, x2 = 0.7441	0.4647 ± 0.0052
298.15 K, x2 = 0.8407	0.4639 ± 0.0052
298.15 K, x2 = 0.8916	0.4636 ± 0.0052
298.15 K, x2 = 0.961	0.4633 ± 0.0051
313.15 K, x2 = 0.0557	0.3913 ± 0.0052
313.15 K, x2 = 0.0959	0.3917 ± 0.0051
313.15 K, x2 = 0.1963	0.3928 ± 0.0051
313.15 K, x2 = 0.296	0.3935 ± 0.0051
313.15 K, x2 = 0.3892	0.394 ± 0.0051
313.15 K, x2 = 0.521	0.3945 ± 0.005
313.15 K, x2 = 0.5951	0.3946 ± 0.005
313.15 K, x2 = 0.6368	0.3947 ± 0.005
313.15 K, x2 = 0.8089	0.3951 ± 0.0049
313.15 K, x2 = 0.9009	0.3959 ± 0.0049
313.15 K, x2 = 0.9526	0.3968 ± 0.0049

CC(C)(N)CO + C1CNCCN1
viscosity [mPa·s], 101 kPa
Conditions	x2 = 0.02	x2 = 0.04	x2 = 0.06	x2 = 0.08	x2 = 0.1	x2 = 0.12	x2 = 0.14	x2 = 0.16	x2 = 0.18
303.15 K	95.41 ± 4	91.27 ± 3.8	86.75 ± 3.6	83 ± 3.4	79.54 ± 3.3	76.81 ± 3.2	74.64 ± 3.1	71.81 ± 2.9	71 ± 2.9
313.15 K	43.72 ± 1.8	41.54 ± 1.7	38.97 ± 1.6	37.34 ± 1.5	36.06 ± 1.5	35.06 ± 1.4	34.1 ± 1.4	33.76 ± 1.4	33.69 ± 1.4
323.15 K	24.41 ± 1	23.46 ± 0.96	22.58 ± 0.93	21.64 ± 0.89	20.53 ± 0.84	19.63 ± 0.81	18.74 ± 0.77	17.8 ± 0.73	17.07 ± 0.7

[2H]O[2H] + C1COCCO1
viscosity [mPa·s], 101 kPa
Conditions	303.1 K	313.1 K	323.1 K
x1 = 0.1561	1.112 ± 0.018	0.944 ± 0.016	0.817 ± 0.014
x1 = 0.1831	1.154 ± 0.018	0.972 ± 0.016	0.831 ± 0.014
x1 = 0.3467	1.317 ± 0.02	1.092 ± 0.017	0.918 ± 0.015
x1 = 0.522	1.585 ± 0.024	1.289 ± 0.02	1.06 ± 0.017
x1 = 0.5977	1.728 ± 0.025	1.378 ± 0.021	1.128 ± 0.018
x1 = 0.6534	1.836 ± 0.027	1.447 ± 0.022	1.172 ± 0.018
x1 = 0.7431	1.968 ± 0.029	1.529 ± 0.023	1.233 ± 0.019
x1 = 0.8126	1.959 ± 0.029	1.52 ± 0.023	1.213 ± 0.019
x1 = 0.8683	1.754 ± 0.026	1.367 ± 0.021	1.098 ± 0.017
x1 = 0.9108	1.528 ± 0.023	1.199 ± 0.019	0.97 ± 0.016
x1 = 0.9466	1.321 ± 0.021	1.047 ± 0.017	0.853 ± 0.015
x1 = 0.9747	1.131 ± 0.018	0.905 ± 0.015	0.742 ± 0.013
